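Each compound was tested at five concentrations against cells in 96-well plates for 48 hours. GI50 = concentration required for 50% inhibition of growth. TGI denotes the concentration required for complete inhibition of growth.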

Common to all, as to experiment: growth of human tumour cells (NCI), 48 h
Experiment [1] deals with HCT-116 colon.
The subject of experiment [2] is HCT-15 colon.
Experiment [3] deals with NCI-H460 lung.
The test system of experiment [4] is OVCAR-8 ovarian.
The subject of experiment [5] is SK-MEL-5 melanoma.
The test system of experiment [6] is SNB-75 CNS.
Experiment [7] concerns UO-31 renal.
The subject of experiment [8] is NCI-H226 lung.
The subject of experiment [9] is A498 renal.

Turning to `N#C/C(=C/N1CCN(C(=O)c2ccco2)C1=S)C(=O)c1ccccc1`, the GI50 in experiment [1] is 9.12 µM; in [2] it was 5.73 µM; in experiment [3], 9.52 µM; in experiment [4] it was 25.4 µM; in [5], 8.25 µM; in experiment [6] it was 68.2 µM. Also, the GI50 in experiment [7] was 10.2 µM. For the same compound, the TGI in experiment [1] is 57 µM; in experiment [2] it was more than 100 µM; in experiment [3], more than 100 µM; in experiment [4] it was more than 100 µM; in experiment [5], 22.2 µM; in [6], more than 100 µM. The same compound gave a TGI in experiment [7] of 32.5 µM.

Take `COC(=O)/C(C#N)=C1\CCC(O)N1` (configuration not stated): the TGI in experiment [1], in [8], in experiment [3], in experiment [4], in [6] and in experiment [7] was more than 100 µM throughout.

For the compound `CN[C@@H](C)[C@H](NC)c1ccccc1`, the TGI in experiment [1], in experiment [2], in [8], in [4], in experiment [5] and in [6] was more than 100 µM in each case. Moreover, in [7], the TGI is more than 100 µM.

In the case of `CCOC(=N)CC(=O)Nc1cccc(C)c1C`, the TGI in experiment [9], in experiment [1], in experiment [8], in experiment [3], in experiment [4] and in experiment [5] was more than 100 µM in each case. For the same compound, the TGI in experiment [6] and in [7] was more than 100 µM throughout.

Take `CC(=O)c1sc(-c2nc(C)c(C(=O)/C=C\c3ccc(/C=C\C(=O)c4sc(-c5nc(C)c(C(C)=O)s5)nc4C)cc3)s2)nc1C`: the TGI in [1], in [2], in experiment [8], in [3], in experiment [4] and in experiment [7] was more than 100 µM throughout.

Regarding `O=C(Cc1ccccc1)NN1C(=O)C(Cl)C1c1ccc(O)cc1` (configuration not stated), the TGI in experiment [1], in [2], in [8], in experiment [3], in [4] and in [5] was more than 100 µM throughout. In addition, the TGI in experiment [6] and in experiment [7] was more than 100 µM each time.

For the compound `O=c1[nH]c2cc(Cl)ccc2nc1/C(=N\O)C(O)c1ccc(Cl)cc1Cl` (configuration not stated), the TGI in [1], in experiment [2], in experiment [8], in [3], in [4] and in experiment [5] was more than 100 µM in each case. Moreover, the TGI in experiment [6] and in experiment [7] was more than 100 µM each time.

For the compound `O=C1Nc2c(ccc(Cl)c2I)C1=O`, the TGI in experiment [1] was found to be 33.4 µM; in experiment [2] it was 38.6 µM; in experiment [8] it was 46.4 µM; in experiment [3], 31.8 µM; in experiment [4], 76.7 µM; in [5], 29.5 µM. In addition, the TGI in [7] was determined as 32.1 µM.

Consider `COc1ccc(C2c3cc(OC)c(OC)cc3C(Cc3ccc([N+](=O)[O-])cc3)C2c2ccc([N+](=O)[O-])cc2)cc1OC` (configuration not stated), for which the TGI in experiment [9], in experiment [1], in experiment [2], in experiment [8], in experiment [3] and in experiment [4] was more than 100 µM in each case. The TGI in [5], in [6] and in [7] was more than 100 µM each time.

Regarding `Cc1cc(NS(=O)(=O)c2ccc(Nc3c4ccccc4nc4c(C(=O)NCCN(C)C)cccc34)cc2)no1`, the TGI was more than 100 µM in [1]; more than 100 µM in experiment [2]; 2.92 µM in experiment [8]; 26.6 µM in experiment [3]; more than 100 µM in experiment [4]; 11.8 µM in [5]. Moreover, in experiment [6], the TGI worked out at 21 µM.

As for `CCCCCCCCCCCCCCCCCC(=O)O[C@H](COC(=O)CCCCCCCCCCC)COC(=O)CCCCCCCCCCCCCCC`, the TGI in [9], in experiment [1], in [2], in experiment [8], in [3] and in experiment [4] was more than 100 µM each time. Further, the TGI in experiment [5] and in [7] was more than 100 µM in each case.

Turning to `COc1cccc(-n2c3nc(=O)n(C)c(=O)c-3nc3ccccc32)c1`, the TGI in experiment [9] is more than 100 µM; in experiment [1], more than 100 µM; in experiment [2] it was 66.3 µM; in experiment [8], 55.6 µM; in experiment [3] it was 33.4 µM; in experiment [4] it was 49.6 µM. Besides, the TGI is 13.8 µM in [5], 76.2 µM in experiment [6] and more than 100 µM in experiment [7].

For the compound `COC(=O)N/N=C(\C)C(CN1CCCCC1)C(C1=C(O)c2ccccc2OC1)c1ccccc1` (configuration not stated), the TGI in experiment [9], in experiment [1], in experiment [2], in experiment [8], in experiment [3] and in experiment [4] was more than 100 µM in each case. Moreover, the TGI in experiment [5], in [6] and in experiment [7] was more than 100 µM each time.

Take `O=C1CC2C(=O)N(Cc3ccccc3)C1C=C2S(=O)(=O)c1ccccc1` (configuration not stated): the TGI in experiment [9], in experiment [1], in [8], in experiment [3], in experiment [4] and in experiment [5] was more than 100 µM each time. In addition, the TGI in experiment [6] and in experiment [7] was more than 100 µM each time.

With `COC(=O)/C(C)=C/[N+](=O)[O-]`, the TGI in experiment [9] amounted to 43.3 µM; in experiment [1], 20.8 µM; in experiment [2] it was 34.4 µM; in experiment [3] it was 54.8 µM; in [4] it was 63.3 µM; in experiment [5], 47.3 µM. Further, the TGI is 30.1 µM in experiment [6] and 33.3 µM in experiment [7].

Source of the values: PubChem BioAssay (NCI).
